{
  "source": "ChEMBL document CHEMBL3046173",
  "about": "“Synthesis, structure, anticancer, and antioxidant activity of para-xylyl linked bis-benzimidazolium salts and respective dinuclear Ag(I) N-heterocyclic carbene complexes (Part-II)” (Med Chem Res, 2013)",
  "key": {"[1]": {"test_system": "Radical scavenging activity", "assay": "Antioxidant activity assessed as inhibition of DPPH free radicals at 400 uM after 30 min by microplate reader analysis relative to control", "assay_type": "functional"}, "HCT-116": {"test_system": "HCT-116", "assay": "Cytotoxicity against Homo sapiens (human) HCT116 cells assessed as growth inhibition after 48 hr by MTT assay", "assay_type": "functional, cell-based", "details": "for pIC50: HCT-116, 48 h"}},
  "note": "pIC50: −log10 of the molar value.",
  "data": [
    {"smiles": "O=C(O)c1cc(O)c(O)c(O)c1", "values": [
      {"measurement": "inhibition", "setting": "[1]", "value": 77.7, "unit": "%"}
    ]},
    {"smiles": "c1ccc2[nH]cnc2c1", "note": "[BENZIMIDAZOLE]", "values": [
      {"measurement": "inhibition", "setting": "[1]", "value": 21, "unit": "%"},
      {"measurement": "growth inhibition (GI)", "setting": "HCT-116", "value": "Dose-dependent effect"},
      {"measurement": "pIC50", "setting": "HCT-116", "value": "< 3.70"}
    ]},
    {"smiles": "CCCCCCCCn1c[n+](Cc2ccc(C[n+]3cn(CCCCCCCC)c4ccccc43)cc2)c2ccccc21", "values": [
      {"measurement": "inhibition", "setting": "[1]", "value": 17.9, "unit": "%"},
      {"measurement": "growth inhibition (GI)", "setting": "HCT-116", "value": "Dose-dependent effect"},
      {"measurement": "pIC50", "setting": "HCT-116", "value": 6.05}
    ]},
    {"smiles": "CCCCCCCCCn1c[n+](Cc2ccc(C[n+]3cn(CCCCCCCCC)c4ccccc43)cc2)c2ccccc21", "values": [
      {"measurement": "inhibition", "setting": "[1]", "value": 14.8, "unit": "%"},
      {"measurement": "growth inhibition (GI)", "setting": "HCT-116", "value": "Dose-dependent effect"},
      {"measurement": "pIC50", "setting": "HCT-116", "value": 5.55}
    ]},
    {"smiles": "CCCCCCCCCCn1c[n+](Cc2ccc(C[n+]3cn(CCCCCCCCCC)c4ccccc43)cc2)c2ccccc21", "values": [
      {"measurement": "inhibition", "setting": "[1]", "value": 13.7, "unit": "%"},
      {"measurement": "growth inhibition (GI)", "setting": "HCT-116", "value": "Dose-dependent effect"},
      {"measurement": "pIC50", "setting": "HCT-116", "value": 5.48}
    ]},
    {"smiles": "O=c1[nH]cc(F)c(=O)[nH]1", "note": "[FLUOROURACIL]", "values": [
      {"measurement": "growth inhibition (GI)", "setting": "HCT-116", "value": "Dose-dependent effect"},
      {"measurement": "pIC50", "setting": "HCT-116", "value": 4.72}
    ]}
  ]
}
